One block for each molecule: values may come before it. Square brackets hold non-standard residues; d marks the D form. Peptide text beside a SMILES is read from it. * marks the point of attachment. Agmatine = N=C(N)NCCCCN*; Cbz = O=C(OCc1ccccc1)*; azaGly = NNC(=O)O; BrAc = O=C(CBr)*; ClAc = O=C(CCl)*
Tests used:
Papain = biological target: T1, Papain (Carica papaya, UniProt P00784); assay: Papain inhibition (Ki); assay type: biochemical
T1 sequence (P00784 134-345): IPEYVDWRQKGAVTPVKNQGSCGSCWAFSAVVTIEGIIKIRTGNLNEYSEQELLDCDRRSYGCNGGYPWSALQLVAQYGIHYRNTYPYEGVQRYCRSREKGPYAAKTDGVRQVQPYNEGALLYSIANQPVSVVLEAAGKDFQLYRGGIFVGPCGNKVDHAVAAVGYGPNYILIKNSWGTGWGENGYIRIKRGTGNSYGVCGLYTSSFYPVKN

[1] = test system: purified bone marrow macrophages; assay: Osteoclast formation in bone marrow macrophage cultures stimulated with M-CSF and RANKL (TRAP+ multinucleated osteoclasts); assay type: cell-based; conditions: for Osteoclast formation (100% = M-CSF + RANKL): purified bone marrow macrophages stimulated with M-CSF and RANKL, trap+ multinucleated osteoclasts
Experimental: Highly purified BMMs were isolated according to Takeshita et al. (2000).
For osteoclastogenesis experiments, BMMs were seeded either on 0.8 cm^2 glass chamber slides or 0.32 cm^2 96-well plates at a density of 10^4 cells/cm^2 in a-MEM/10% FBS containing either 100 ng/ml M-CSF (controls) or 100 ng/ml M-CSF C50 ng/ml RANKL, with and without test compounds. After 4-5 days, with a change of medium after 3 days, the cultures were harvested and the cells fixed with acetone in citrate buffer/3% formaldehyde and subsequently stained for TRAP. The TRAP-positive cells with three or more nuclei were considered osteoclasts, and the number of multinucleated osteoclasts was counted (TRAP^+-MuOCL). […] Osteoclast formation caused by M-CSF and RANKL was abolished by OPG

Cath K = biological target: T2, Cath K (Homo sapiens, UniProt P43235); assay: Cathepsin K inhibition (Ki); assay type: biochemical
T2 sequence (P43235 115-329): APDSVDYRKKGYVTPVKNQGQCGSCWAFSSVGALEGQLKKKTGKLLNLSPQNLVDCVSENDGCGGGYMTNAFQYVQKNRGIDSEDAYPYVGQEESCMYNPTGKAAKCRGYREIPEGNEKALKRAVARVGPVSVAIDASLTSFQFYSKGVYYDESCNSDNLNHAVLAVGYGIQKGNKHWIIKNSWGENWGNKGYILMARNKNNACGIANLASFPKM

Cath B = Cath B (Homo sapiens, UniProt P07858); assay: Cathepsin B inhibition (Ki); assay type: biochemical
spleen cells = assay: Osteoclast formation in spleen cell cultures (TRAP+ multinucleated osteoclasts); assay type: cell-based, mice; conditions: for Osteoclast formation in the presence of the substance: without M-CSF/RANKL stimulation
Experimental: Cells were obtained from spleens of 5- to 9-week-old mice. The spleens were dissected free of adhering tissues, and cells were released by rubbing the spleens against the bottom of a Petri dish, in which grooves had been made by a scalpel. Erythrocytes were lysed in red blood cell lysis buffer (0.16 MNH4Cl, 0.17 M Tris, pH7.65) and the remaining cells were seeded, at a cell density of 10^6 cells/cm2, on plastic coverslips placed in 24-well plates. The cells were cultured in 0.5 ml a-minimal essential medium (a-MEM) supplemented with 10% fetal bovine serum (FBS), L-glutamine (0.7 mM), 100 U/ml benzylpenicillin, […] and 100 […] sulphate. Cells were allowed to settle overnight in complete medium and thereafter the medium was changed and the experiment started. Osteoclast precursor cells were induced to proliferate and differentiate by the addition of M-CSF (25 ng/ml) and RANKL (100 ng/ml). To study the effect of the compounds on osteoclastogenesis, cells were grown in medium containing compounds at different concentrations, together with M-CSF and RANKL. Cells cultured in complete medium without M-CSF and RANKL were included in all experiments as a control. Medium was changed after 3 days. After 1-6 days, the cells were washed three times with PBS (pH 7.35) and fixed with acetone in citrate buffer/3% formaldehyde solution. Cells were then stained for tartrate-resistant acid phosphatase (TRAP) activity using the SigmaDiagnostics Acid Phosphatase Leukocyte staining kit and by following the manufacturer's instruction. Multinucleated (no. of nuclei >3), TRAP-positive cells were counted as osteoclasts (TRAPC-MuOCL).

Molecule: CC(C)CC(NC(=O)C(CCCNC(=N)N)NC(=O)OCc1ccccc1)C(=O)NC(CNC(=O)/C=C/c1ccccc1)C(C)C (stereo not drawn) [A-20, Z-Arg-Leu-NH—CH(iPr)—CH2—NH←Cin]
Papain Ki (Papain): Inactive
Osteoclast formation (100% = M-CSF + RANKL) ([1]; BMM #27 + #29 + #30 + #34): 0%

Molecule: CC(C)CC(NC(=O)Cc1cc(=O)oc2cc(O)ccc12)C(=O)NC(CC(C)C)C(=O)NCCCCNC(=N)N [A-128, N-amidino-4-(7-hydroxy-4-coumarinacetyl-D-leucyl-L-leucylamino)butylamine]
Osteoclast formation (100% = M-CSF + RANKL) ([1]; BMM #141 and #142): 4%

Molecule: CC(C)CC(NC(=O)CCCCNC(=N)N)C(=O)NC(CNC(=O)C(Cc1ccccc1)NC(=O)Cc1cc(=O)oc2cc(O)ccc12)C(C)C [A-107, (2S)-2-[N-(5-guanidinepentanoyl)-L-leucylamino]-1-[N-(7-hydroxy-4-coumarinylacetyl-L-phenylalanylamino)-3-methylbutane]
Osteoclast formation (100% = M-CSF + RANKL) ([1]; BMM #141 and #142): 0%

Ki (Papain): 161 nM
Cath K Ki (Cath K): inactive
Ki (Cath B): 14 nM
Molecule: COC(=O)C1OC1C(=O)NC(C(=O)NC(CC(C)C)C(=O)NCCCCNC(=N)N)C(C)C (stereo not drawn) [A-42, MeO-Eps-Val-Leu-Agm]
Osteoclast formation (100% = M-CSF + RANKL) ([1]; BMM #27 + #29 + #30 + #34): 0%

Ki (Papain): 93 nM
Ki (Cath K): 14 nM
Ki (Cath B): 360 nM
Molecule: CC(C)CC(NC(=O)C(NC(=O)CCl)C(C)C)C(=O)NCCCCNC(=N)N (stereo not drawn) [A-11, ClAc—Val-Leu-Agm] (ClAc-Val-Leu-Agmatine; configuration not given here)
Osteoclast formation (100% = M-CSF + RANKL) ([1]; BMM #27 + #29 + #30 + #34): 1%

Molecule: CC(C)CC(NC(=O)C(NC(=O)/C=C/S(=O)(=O)Cc1ccccc1)C(C)C)C(=O)NCCCCNC(=N)N (stereo not drawn) [A-25, Bzsa-Val-Leu-Agm]
Papain Ki (Papain): Inactive
Ki (Cath K): 42.2 nM
Ki (Cath B): 8.1 nM
Osteoclast formation (100% = M-CSF + RANKL) ([1]; BMM #27 + #29 + #30 + #34): 1%

Ki (Papain): 9 nM
Ki (Cath K): 1 nM
Molecule: CCC(C)C(NC(=O)NNC(=O)C(CCCNC(=N)N)NC(=O)C(CC(C)C)NC(=O)C(CCCNC(=N)N)NC(=O)OCc1ccccc1)C(=O)NC(C(=O)OC)C(C)C (stereo not drawn) [Z-RLR, Z-Arg-Leu-Arg-Agly-Ile-Val-OMe] (Cbz-RLR[azaGly]IV-OMe; configuration not given here)
Osteoclast formation (100% = M-CSF + RANKL) ([1]; BMM #27 + #29 + #30 + #34): 0%

Molecule: CC(C)CC(NC(=O)C(CCCNC(=N)N)NC(=O)OCc1ccccc1)C(=O)NC(C(=O)NC(Cc1ccccc1)C(N)=O)C(C)C (stereo not drawn) [A-59, Ppa-Arg-Leu-Val-Phe-NH2] (Cbz-RLVF-NH2; configuration not given here)
Osteoclast formation (100% = M-CSF + RANKL) ([1]; BMM #27 + #29 + #30 + #34): 0%

Ki (Papain): 16 nM
Ki (Cath K): 99 nM
Ki (Cath B): 0.3 nM
Molecule: CC(C)CC(NC(=O)C(NC(=O)C1OC1C(=O)c1ccccc1)C(C)C)C(=O)NCCCCNC(=N)N (single isomer, unassigned) [A-47]
Osteoclast formation (100% = M-CSF + RANKL) ([1]; BMM #27 + #29 + #30 + #34): 0%

Ki (Papain): 1000 nM
Ki (Cath K): 14 nM
Ki (Cath B): 228 nM
Molecule: CC(C)CC(NC(=O)CCCCNC(=N)N)C(=O)NC(CNC(=O)/C=C/S(=O)(=O)Cc1ccccc1)C(C)C (stereo not drawn) [A-54]
Osteoclast formation (100% = M-CSF + RANKL) ([1]; BMM #27 + #29 + #30 + #34): 1%

Ki (Papain): 94 nM
Ki (Cath K): 13 nM
Ki (Cath B): 1000 nM
Molecule: CC(C)CC(NC(=O)C(NC(=O)CBr)C(C)C)C(=O)NCCCCNC(=N)N (stereo not drawn) [A-12, BrAc—Val-Leu-Agm] (BrAc-Val-Leu-Agmatine; configuration not given here)
Osteoclast formation (100% = M-CSF + RANKL) ([1]; BMM #27 + #29 + #30 + #34): 2%

Ki (Papain): 23 nM
Ki (Cath K): 160 nM
Ki (Cath B): 3 nM
Molecule: CCC(C)C(NC(=O)/C=C/S(=O)(=O)Cc1ccccc1)C(=O)N1CCCC1C(=O)O (stereo not drawn) [M-1, Bzsa-Ile-Pro-OH]
Osteoclast formation (100% = M-CSF + RANKL) ([1]; BMM #27 + #29 + #30 + #34): 14%

Ki (Papain): 46 nM
Ki (Cath K): 24 nM
Ki (Cath B): 2 nM
Molecule: CC(C)CC(NC(=O)C(NC(=O)/C=C/C(=O)c1ccccc1)C(C)C)C(=O)NCCCCNC(=N)N (stereo not drawn) [A-33, Bzac-Val-Leu-Agm]
Osteoclast formation (100% = M-CSF + RANKL) ([1]; BMM #27 + #29 + #30 + #34): 0%

Molecule: CC(C)CC(NC(=O)C(CCCNC(=N)N)NC(=O)OCc1ccccc1)C(=O)NC(CNC(=O)/C=C/c1ccncc1)C(C)C (stereo not drawn) [A-49, Z-Arg-Leu-NH—CH(iPr)—CH2—NH←4-Pac]
Osteoclast formation (100% = M-CSF + RANKL) ([1]; BMM #27 + #29 + #30 + #34): 0.2%

Molecule: CC(C)CC(NC(=O)/C=C/c1cccnc1)C(=O)NC(CC(C)C)C(=O)NCCCCNC(=N)N (stereo not drawn) [A-127, 3 Pac-DLeu-Leu-Agm]
Osteoclast formation (100% = M-CSF + RANKL) ([1]; BMM #141 and #142): 16%

Ki (Papain): 340 nM
Cath K Ki (Cath K): inactive
Cath B Ki (Cath B): inactive
Molecule: CC(C)C[C@H](NC(=O)[C@@H](NC(=O)[C@H](Br)Cc1ccccc1)C(C)C)C(=O)NCCCCNC(=N)N [A-16, BrPpr-Val-Leu-Agm]
Osteoclast formation (100% = M-CSF + RANKL) ([1]; BMM #27 + #29 + #30 + #34): 16%

Molecule: C=C1/C(=C\C=C2/CCC[C@]3(C)[C@@H]([C@H](C)CCCC(C)(C)O)CC[C@@H]23)C[C@@H](O)C[C@@H]1O [D3, 1.25(OH)2-vitamin D3, reference compound]
Osteoclast formation in the presence of the substance (spleen cells): No osteoclasts were formed
Osteoclast formation in the presence of the substance ([1]; BMM cultures): Osteoclasts were not formed

Ki (Papain): 68 nM
Ki (Cath K): 63 nM
Ki (Cath B): 55 nM
Molecule: CC(C)CC(NC(=O)C(NC(=O)C1OC1C(=O)c1ccccc1)C(C)C)C(=O)NCCCCNC(=N)N (single isomer, unassigned) [A-50]
Osteoclast formation (100% = M-CSF + RANKL) ([1]; BMM #27 + #29 + #30 + #34): 2%

B1: PTH (protein, UniProt P01270 32-115, looked up)
Parathyroid hormone: SVSEIQLMHNLGKHLNSMERVEWLRKKLQDVHNFVALGAPLAPRDAGSQRPRKKEDNVLVESHEKSLGEADKADVNVLTKAKSQ
modifications: Parathyroid hormone
notes: PTH, used to show the lack of stromal cells in the cultures
Osteoclast formation in the presence of the substance (spleen cells): No osteoclasts were formed
Osteoclast formation in the presence of the substance ([1]; BMM cultures): Osteoclasts were not formed

B2: osteoprotegerin (protein, UniProt O00300 22-401, looked up)
Tumor necrosis factor …: ETFPPKYLHYDEETSHQLLCDKCPPGTYLKQHCTAKWKTVCAPCPDHYYTDSWHTSDECLYCSPVCKELQYVKQECNRTHNRVCECKEGRYLEIEFCLKHRSCPPGFGVVQAGTPERNTVCKRCPDGFFSNETSSKAPCRKHTNCSVFGLLLTQKGNATHDNICSGNSESTQKCGIDVTLCEEAFFRFAVPTKFTPNWLSVLVDNLPGTKVNAESVERIKRQHSSQEQTFQLLKLWKHQNKDQDIVKKIIQDIDLCENSVQRHIGHANLTFEQLRSLMESLPGKKVGAEDIEKTIKACKPSDQILKLLSLWRIKNGDQDTLKGLMHALKHSKTYHFPKTVTQSLKKTIRFLHSFTMYKLYQKLFLEMIGNQVQSVKISCL
notes: osteoprotegerin (OPG), abolishes M-CSF/RANKL-stimulated osteoclast formation
Effect on stimulation of osteoclast formation caused by M-CSF and RANKL (spleen cells; M-CSF and RANKL): abolished
Effect on osteoclast formation caused by M-CSF and RANKL ([1]; BMM cultures, M-CSF and RANKL): abolished

B3: Cystatin C (protein, UniProt P01034 27-146, looked up)
Cystatin-C: SSPGKPPRLVGGPMDASVEEEGVRRALDFAVGEYNKASNDMYHSRALQVVRARKQIVAGVNYFLDVELGRTTCTKTQPNLDNCPFHDQPHLKRKAFCSFQIYAVPWQGTMTLSKSTCQDA
Osteoclast formation (100% = M-CSF + RANKL) ([1]; BMM #141 and #142): 0%

From patent US8748370B2, “Peptide derivatives for treatment, prevention or alleviation of a condition associated with bone loss or low bone density or to inhibit osteoclast differentiation and stimulation” (Strongbone AB, priority 2009, dated 2014)
